We go through 33 compounds from patent publication US8202910B2 (Sequella, Inc., priority 2006, dated 2012).

Where “and” joins values, the source holds several entries; their conditions need not be identical. Equal values may be shown once. Read-outs that look alike come from different tables or passages of the source.

The subject of data set [1] is H37Rv strain of Mycobacterium tuberculosis. The experiment in a line: microbe, parasite or virus in culture. The format is cell-based.
A further data set deals with cells. Briefly: LD50 for selectivity index (Table 10). Type of data set: cell-based, Mycobacterium tuberculosis. The following applies: for SI (Selectivity Index): LD50 : MIC. From the text:
Table 10 lists MIC and LD50 data for selected compounds. […] Table 11 lists MIC data for purified substituted ethylene diamines in comparison to ethambutol (EMB).

In data set [2] the test system is monkey kidney cells (Vero). The experiment in a line: In vitro toxicity, Vero cells. The format is cell-based. The following applies: Primates. As to the method:
Twenty six compounds (including 37, 59 and 109) were tested in an in vitro model of toxicity using monkey kidney cells (Vero) and human cervical cancer cells (HeLa) using methods well known to those skilled in the art. The data from this toxicity testing and the MIC data were used to calculate a selectivity index (SI), the ratio of IC50:MIC (Table 15). Selectivity Indexes were ranging from 1.76 to 16.67.

A further data set concerns M. tuberculosis H37Rv. Briefly: In vivo efficacy, mice infected i.v. with M. tuberculosis, CFU in spleen and lungs. The arrangement: species or system C57BL/6 mice. The following applies: 1 mg/kg and 10 mg/kg; 5×10^5 CFU, chemotherapy from day 20.
[3] abbreviates: Mycobacterium tuberculosis, H37RV, read-out: MIC.
Setting [4] is: Mycobacterium tuberculosis, H37RV, Table 10, from uM and MW, read-out: MIC.
Where [5] appears, read: Mycobacterium tuberculosis, H37RV, Table 10, read-out: MIC.
Setting [6] is: Mycobacterium tuberculosis, H37RV, Table 15, read-out: MIC.
The mark [7] stands for this setting: concentration at which 50% of the cells are killed.

With `CC(CNC[C@@H]1CCC2C[C@@H]1C2(C)C)NCC1CCC2C[C@@H]1C2(C)C` (stereo partly drawn) [Compound 125, N,N′-bis-(−)-cis-Myrtanylpropane-1,2-diamine], the “MIC” value amounted to 15.625 µM in data set [1] and 15.6 µM in data set [1] (setting [3]).

Take `C=CCN(CCNCCc1ccccc1OC)C1CCCC1` [Compound 76, N-Allyl-N-cyclopentyl-N′-[2-(2-methoxyphenyl)ethyl]ethane-1,2-diamine]: the “MIC” value in data set [1] is 31.25 µM; in data set [1] (setting [3]), 62.5 µM.

`CC(NCCNCC(c1ccccc1)c1ccccc1)C(O)c1ccc(O)c(O)c1` (stereo not drawn) [Compound 134, N-[2-(N′-2,2-Diphenylethyl)-aminoethyl]-(−)-3,4-dihydroxynorephedrine]: the “MIC” value is 500 µM in data set [1] and over 500 µM in data set [1] (setting [3]).

On to `COc1ccc(CCNCCNCC23CC4CC(CC(C4)C2)C3)cc1OC` [Compound 4], for which the figures for the “MIC” value in data set [1] and in data set [1] (setting [3]) were 62.5 µM and 125 µM, respectively.

For `CC1(C)C2CCC(CNCCNC3CCCCCCC3)[C@@H]1C2` (stereo partly drawn) [Compound 57, N-(−)-cis-Myrtanyl-N′-(cyclooctyl)ethane-1,2-diamine], the MIC in data set [1] (setting [4]) is 6.66 µg/mL; in data set [1] (setting [5]), 15.6 µM; in data set [1] (setting [6]), 11.7 µM. In addition, the “SI (Selectivity Index)” value in the data set with cells came out at 1.152. For the same compound, the “LD50” value is 18 µM in the data set on cells (setting [7]); 7.668 µg/mL with cells (from uM and MW). For the same compound, in data set [2], the IC50 was 22 µM.

Consider `CCC(CO)NCCN[C@@H]1C[C@@H]2CC([C@H]1C)C2(C)C` (mixture of isomers) [Compound 68], for which the MIC in data set [1] (setting [3]) was 500 µM.

For `C1CCCC(NCCNCC23CC4CC(CC(C4)C2)C3)CCC1` [Compound 55, N-(Cyclooctyl)-N′-(1-methyladamantyl)ethane-1,2-diamine], the “MIC” value in data set [1] is 15.625 µM and 15.6 µM; in data set [1] (setting [6]), 15.6 µM; in data set [1] (setting [3]) it was 15.6 µM. This compound showed an IC50 in data set [2] of 34 µM.

Consider `C[C@@H]1[C@@H](NCCNC2CCCCCCC2)C[C@H]2C[C@@H]1C2(C)C` [Compound 53, N-Cyclooctyl-N′-(1S, 2S, 3S, 5R)-(+)-isopinocampheyl-ethane-1,2-diamine], for which the MIC in data set [1] (setting [3]) was found to be 31.2 µM.

Take `CC1CC(C)CN(CCNCCC(c2ccccc2)c2ccccc2)C1` (centres unmarked) [Compound 15, 1-{2-[N-(3,3-Diphenylpropyl)]-aminoethyl}-3,5-dimethyl-piperidine]: the “MIC” value in data set [1] was 250 µM and 500 µM; in data set [1] (setting [3]), over 500 µM.

Take `c1ccc(C2CC2NCCNC2C3CC4CC(C3)CC2C4)cc1` (stereo not drawn) [Compound 64, N-(2-Adamantyl)-N′- trans-(2-phenylcyclopropyl)ethane-1,2-diamine]: in data set [1] (setting [3]), the MIC was 31.2 µM.

As for `c1ccc(C(CNCCNCC23CC4CC(CC(C4)C2)C3)c2ccccc2)cc1` [Compound 34, N-(2,2-Diphenylethyl)-N′-(1-methyladamantyl)ethane-1,2-diamine], the figures for the MIC in data set [1] (setting [4]) and in data set [1] (setting [5]) were 3.97 µg/mL and 7.81 µM, respectively. Besides, the “SI (Selectivity Index)” value with cells was 4.096. Further, the “LD50” value in the data set on cells (setting [7]) stood at 32 µM; in the data set on cells (from uM and MW), 16.256 µg/mL.

On to `c1ccc(C2CC2NCCNC23CC4CC(CC(C4)C2)C3)cc1` (stereo not drawn) [Compound 65, N-(1-Adamantyl)-N′- trans-(2-phenylcyclopropyl)ethane-1,2-diamine], for which the “MIC” value in data set [1] is 31.25 µM; in data set [1] (setting [4]), 6.72 µg/mL; in data set [1] (setting [5]), 15.6 µM; in data set [1] (setting [3]), 15.6 µM. Moreover, the “SI (Selectivity Index)” value in the data set on cells turned out to be 3.84. The “LD50” value stood at 60 µM in the data set on cells (setting [7]); 25.8 µg/mL in the data set on cells (from uM and MW).

For `CCOCCCNCCNCC(c1ccccc1)c1ccccc1` [Compound 107], the “MIC” value was 250 µM in data set [1] and 500 µM in data set [1] (setting [3]).

Turning to `COc1ccc(CCNCC(NCCc2ccc(F)cc2)c2ccccc2)cc1` (centres unmarked) [Compound 164, N^1-[2-(4-fluorophenyl)ethyl]-N^2-[2-(4-Methoxy)phenylethyl)-1-phenylethane-1,2-diamine], the “MIC” value worked out at 125 µM in data set [1] and 62.5 µM in data set [1] (setting [3]).

Consider `C=CCN(CCNCCc1ccccc1Cl)C1CCCC1` [Compound 118, N-2-(2-Chlorophenyl)ethyl-N′-allyl-N′-(cyclopentyl)ethane-1,2-diamine], for which the “MIC” value was determined as 62.5 µM in data set [1] and 31.2 µM in data set [1] (setting [3]).

As for `CC(CNCCC(c1ccccc1)c1ccccc1)NCC12CC3CC(CC(C3)C1)C2` (centres unmarked) [Compound 6], the MIC in data set [1] (setting [4]) turned out to be 4.19 µg/mL; in data set [1] (setting [5]) it was 7.81 µM. Also, in the data set on cells, the “SI (Selectivity Index)” value is recorded as 2.56. The “LD50” value in the data set on cells (setting [7]) was 20 µM; with cells (from uM and MW), 10.72 µg/mL.

On to `C(CNC1C2CC3CC(C2)CC1C3)NC1C2CC3CC(C2)CC1C3` (centres unmarked) [SQBisAd, Bis(2-Adamantyl)ethylenediamine], for which, in data set [1], the “MIC (Minimal Inhibitory Concentration) compared with compound 109” value is recorded as “equal or better than compound 109”.

As to `CC1CCCC(NCCNCC(c2ccccc2)c2ccccc2)C1C` (centres unmarked) [Compound 29, N-(2,2-Diphenylethyl)-N′-(2,3-dimethylcylcohexyl)ethane-1,2-diamine], the “MIC” value in data set [1] was found to be 31.25 µM; in data set [1] (setting [3]), 62.5 µM.

For `c1ccc(C2CC2NCCNC2CCCCCCC2)cc1` (stereo not drawn) [Compound 63, N-(Cyclooctyl)-N′-trans-(2-phenylcyclopropyl)ethane-1,2-diamine], the “MIC” value in data set [1] worked out at 31.25 µM; in data set [1] (setting [3]), 62.5 µM.

In the case of `CC(CNCC(c1ccccc1)c1ccccc1)NCC1CCC2C[C@@H]1C2(C)C` (stereo partly drawn) [Compound 38, N-(−)-cis-(Myrtanyl)-N′-(2,2-diphenylethyl)propyl-1,2-diamine], the MIC in data set [1] (setting [6]) was determined as 6.25 µM. Also, in data set [2], the IC50 stood at 33 µM.

As to `COc1ccccc1CCNCCN[C@@H]1C[C@@H]2CC([C@H]1C)C2(C)C` [Compound 151, N-[2-(2-Methoxy)phenylethyl]-N′-(1R, 2R, 3R, 5S)-(−)-isopinocampheyl-ethane-1,2-diamine], the “MIC” value in data set [1] was found to be 7.813 µM; in data set [1] (setting [4]), 3.52 µg/mL; in data set [1] (setting [5]), 7.81 µM; in data set [1] (setting [3]), 15.6 µM. In the data set with cells, the “SI (Selectivity Index)” value amounted to 5.248. Also, the “LD50” value is 41 µM in the data set on cells (setting [7]); 18.45 µg/mL in the data set with cells (from uM and MW).

Turning to `C[C@@H]1C2C[C@@H](C[C@H]1NCCNCC1CCC3C[C@@H]1C3(C)C)C2(C)C` (stereo partly drawn) [Compound 47, N-(−)-cis-Myrtanyl-N′-(1R, 2R, 3R, 5S)-(−)-isopinocampheylethane-1,2-diamine], the figures for the MIC in data set [1] (setting [4]) and in data set [1] (setting [5]) were 7.06 µg/mL and 15.6 µM, respectively. Further, in the data set on cells, the “SI (Selectivity Index)” value is reported as 1.6. Further, the “LD50” value with cells (setting [7]) is 25 µM; in the data set on cells (from uM and MW), 11.3 µg/mL.

As to `C[C@@H]1C2C[C@@H](C[C@H]1NCCNCC(c1ccccc1)c1ccccc1)C2(C)C` [Compound 40, N-(2,2-Diphenylethyl)-N′-(1R,2R,3R,5S)-(−)-isopinocampheylethane-1,2-diamine], the MIC in data set [1] (setting [6]) worked out at 15.6 µM. Further, in data set [2], half-maximal inhibition (IC50) required 25 µM.

For `C[C@@H]1C2C[C@@H](C[C@H]1NCCNCCC(c1ccccc1)c1ccccc1)C2(C)C` [Compound 66, N-(3,3-Diphenylpropyl)-N′-(1R, 2R, 3R, 5S)-(−)-isopinocampheylethane-1,2-diamine], the MIC in data set [1] (setting [6]) amounted to 15.6 µM. The IC50 in data set [2] worked out at 28 µM.

With `Fc1cccc(CCNCCNCCc2ccccc2Cl)c1` [Compound 119, N-2-(2-Chlorophenyl)ethyl-N′-[2-(3-fluorophenyl)-ethyl]ethane-1,2-diamine], the “MIC” value turned out to be 62.5 µM in data set [1] and 125 µM in data set [1] (setting [3]).

Take `COc1ccccc1CCNCCNC1C2CC3CC(C2)CC1C3` (centres unmarked) [Compound 73, N-(2-Adamantyl)-N′-[2-(2-methoxyphenyl)ethyl]ethane-1,2-diamine]: in data set [1] (setting [6]), the MIC is 12.5 µM. This compound yielded a half-maximal inhibitory concentration (IC50) in data set [2] of 81 µM. In addition, the “activity in the spleen compared with EMB” value with M. tuberculosis H37Rv is “equal to that of EMB at 100 mg/kg”.

Turning to `CC(C)(C)CC(C)(C)NCCNCC(c1ccccc1)c1ccccc1` [Compound 33, N-(2,2-Diphenylethyl)-N′-(1,1,3,3-tetramethylbutyl)-ethane-1,2-diamine], the “MIC” value in data set [1] came out at 31.25 µM; in data set [1] (setting [3]) it was 62.5 µM.

On to `CC1CCCC(NCCNC[C@@H]2CCC3C[C@@H]2C3(C)C)C1C` (stereo partly drawn) [Compound 41, N-(−)-cis-(Myrtanyl)-N′-(2,3-dimethylcyclohexyl)ethane-1,2-diamine], for which the MIC in data set [1] (setting [6]) is 3.13 µM. The same compound returned an IC50 in data set [2] of 19 µM.

Consider `CC(NCCNC1CCCCCCC1)c1cccc2ccccc12` (centres unmarked) [Compound 61], for which the results for the “MIC” value in data set [1] and in data set [1] (setting [3]) were 31.25 µM and 62.5 µM, respectively.

Regarding `CC[C@@H](CO)NCCNC1CCCCCCC1` [Compound 56, N-(Cyclooctyl)-N′-(2S)-[2-(1-hydroxybutyl)]ethane-1,2-diamine], the figures for the “MIC” value in data set [1] and in data set [1] (setting [3]) were over 500 µM and 500 µM, respectively.

Consider `c1ccc2c(c1)CC(NCCNC1C3CC4CC(C3)CC1C4)C2` (centres unmarked) [Compound 78, N-2-Adamantyl-N′-2,3-dihydro-1H-inden-2-yl-ethane-1,2-diamine], for which, in data set [1] (setting [6]), the MIC is 15.6 µM. Also, the IC50 in data set [2] turned out to be 130 µM.

Regarding `C[C@@H]1C2C[C@@H](C[C@H]1NCCNC(c1ccccc1)c1ccccc1)C2(C)C` [Compound 71, N-(1,1-Diphenylmethyl)-N′-(1R, 2R, 3R, 5S)-(−)-isopinocampheylethane-1,2-diamine], the “MIC” value in data set [1] came out at 31.25 µM; in data set [1] (setting [3]) it was 62.5 µM.

For `C1CCCC(NCCNC2CCCCCCC2)CCC1` [Compound 103, N,N′-Bis(cyclooctyl)ethane-1,2-diamine], the figures for the “MIC” value in data set [1] and in data set [1] (setting [3]) were 62.5 µM and 31.2 µM, respectively.

The term IC50 denotes the midpoint of a concentration-inhibition curve.
